Assay results as given in patent publication US20050159476A1, “Pharmaceutical composition for preventing or treating respiratory disease” (Chugai Seiyaku Kabushiki Kaisha, priority 2002, published 2005).
Where two headings read alike, the source gives them in different places.

Legend:
Format in all cases: cell-based
[1] = system: normal human bronchial/tracheal epithelial cells (NHBE w/RA); assay: Protective effect against cell injury induced by oxidized LDL in normal human bronchial/tracheal epithelial cells (LDH leakage); settings: 24 h, average ± standard error; for inhibition at 3 µM: 3 μmol/L test compound; for inhibition at 30 µM: 30 μmol/L test compound
Protocol: (§1) Oxidized LDL was prepared by maintaining 1 mg/mL of rabbit LDL at 37° C for 24 hours in PBS (-) containing 10 μmol/L CUSO4.
(§2) These cells were dispersed in F12K medium containing 10% FBS and plated on a 24-well plate at 2.5×10^4 cells/500 μL/well. These cells were incubated at 37° C. for 18 hours and then the medium was replaced by F12K medium containing 2% FBS. At this time, 2.5 μL of a solution or a suspension of each test compound in ethanol was added at the concentrations of the test compound of 3 μmol/L and 30 μmol/L in each well.
(§3) After incubation at 37° C. for 6 hours, 50 μL of a suspension of oxidized LDL was added per well at the concentration of oxidized LDL of 100 μg/mL in each well.
(§4) After incubation at 37° C. for 24 hours, 200 μL of the supernatant was collected from each well and the amount of lactate dehydrogenase (LDH) leaked from cells was determined by the SFBC method.
(§5) Further test was carried out in the same manner as the above test with the exception that each test compound was added to the cell culture after incubation for 6 hours following medium replacement and immediately before oxidized LDL was added thereto rather than when the medium was replaced with F12K medium containing 2% FBS.
(§6) Higher LDH levels in the supernatant indicate that greater cell injury is induced by oxidized LDL. Separately, one experiment was carried out using a well in the same manner as the above test with the exception that no test compound was added to the well. The level of LDH in this well was defined as 0% cell protection. In addition, other experiment was carried out using another well without adding either test compound or oxidized LDL but with adding saline instead. The level of LDH in this well was defined as 100% cell protection. These levels of LDH were used for calculating cell protection of each test compound used in the above test.
This test example was carried out in a similar manner to test example 1 except that human A549 cells were replaced with normal human bronchial/tracheal epithelial cells (NHBE w/RA: BioWhittaker Co.), cell culture medium was changed from F12K medium containing 10% FBS to BEGM® medium, and the replacement of medium was not made.

[2] = system: human A549 cells; assay: Protective effect against cell injury induced by oxidized LDL in human A549 cells (LDH leakage); settings: for inhibition at 3 µM / inhibition at 30 µM: Homo sapiens, oxidized LDL 100 μg/mL, 24 hours, average ± standard error; for inhibition at 3 µM: 3 μmol/L test compound; for inhibition at 30 µM: 30 μmol/L test compound
Protocol: as §1
Human A549 cells used in this test are available under accession number ATCC-CCL-185 and have the properties of type II alveolar epithelial cells (Lieber M, Smith B, Szakal A, Nelson-Rees W, Todaro G., A continuous tumor-cell line from a human lung carcinoma with properties of type II alveolar epithelial cells. Int J Cancer Jan. 15, 1976; 17(1):62-70).
as §2, §3, §4, §5, §6
Probucol and α-tocopherol were tested for comparison with the compounds of the present invention. In this test, the test compounds were added to the cell culture after incubation for 6 hours following medium replacement and immediately before oxidized LDL was added.

[3] = system: human A549 cells; assay: Protective effect against cell injury induced by t-butyl hydroperoxide in human A549 cells; settings: t-BuOOH in saline in each well
[4] = read-out: % Cell protection in the case where oxidized LDL was added 6 hrs after adding test compound
[5] = read-out: % Cell protection in the case where oxidized LDL was added immediately after adding test compound

CCCCCC1(CCCCC)Cc2c(cc(C(C)(C)C)c(O)c2C(C)(C)C)O1 [Compound 3, 4,6-di-t-butyl-2,2-di-n-pentyl-5-hydroxy-2,3-dihydrobenzofuran]
inhibition at 3 µM [1, 4]: 49.8 ± 6.4%
inhibition at 3 µM [1, 5]: 9.8 ± 3.3%
inhibition at 30 µM [1, 4]: 70.8 ± 2%
inhibition at 30 µM [1, 5]: 66.2 ± 2.6%
inhibition at 3 µM [2, 4]: 18.7 ± 2.1%
inhibition at 3 µM [2, 5]: 14.3 ± 2.3%
inhibition at 30 µM [2, 4]: 95 ± 2.5%
inhibition at 30 µM [2, 5]: 85.4 ± 1.6%
% cell protection as a function of test compound concentration (FIG. 1) ([2]; test compound added immediately before oxidized LDL, Test Example 2): begins to sharply increase when the concentration of Compound 3 exceeds about 10 μmol/L
inhibition of cell injury induced by t-butyl hydroperoxide (FIG. 2) [3]: inhibits cell injury
